According to ChEMBL document CHEMBL1201862, “PubChem BioAssay data set” (2004):
Activity calls are given as the source filed them.

Legend:
Type in all cases: functional
[1] = molecular target: Tyrosine-protein kinase Lyn (Homo sapiens, UniProt P07948);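 note: lyn as one member of a kinase panel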
[2] = molecular target: Insulin receptor (Homo sapiens, UniProt P06213);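 note: insulin receptor kinase tested as one member of a kinome-wide kinase panel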
[3] = molecular target: Fibroblast growth factor receptor 1 (Homo sapiens, UniProt P11362)
Fibroblast growth factor receptor 1, sequence (P11362 whole entry): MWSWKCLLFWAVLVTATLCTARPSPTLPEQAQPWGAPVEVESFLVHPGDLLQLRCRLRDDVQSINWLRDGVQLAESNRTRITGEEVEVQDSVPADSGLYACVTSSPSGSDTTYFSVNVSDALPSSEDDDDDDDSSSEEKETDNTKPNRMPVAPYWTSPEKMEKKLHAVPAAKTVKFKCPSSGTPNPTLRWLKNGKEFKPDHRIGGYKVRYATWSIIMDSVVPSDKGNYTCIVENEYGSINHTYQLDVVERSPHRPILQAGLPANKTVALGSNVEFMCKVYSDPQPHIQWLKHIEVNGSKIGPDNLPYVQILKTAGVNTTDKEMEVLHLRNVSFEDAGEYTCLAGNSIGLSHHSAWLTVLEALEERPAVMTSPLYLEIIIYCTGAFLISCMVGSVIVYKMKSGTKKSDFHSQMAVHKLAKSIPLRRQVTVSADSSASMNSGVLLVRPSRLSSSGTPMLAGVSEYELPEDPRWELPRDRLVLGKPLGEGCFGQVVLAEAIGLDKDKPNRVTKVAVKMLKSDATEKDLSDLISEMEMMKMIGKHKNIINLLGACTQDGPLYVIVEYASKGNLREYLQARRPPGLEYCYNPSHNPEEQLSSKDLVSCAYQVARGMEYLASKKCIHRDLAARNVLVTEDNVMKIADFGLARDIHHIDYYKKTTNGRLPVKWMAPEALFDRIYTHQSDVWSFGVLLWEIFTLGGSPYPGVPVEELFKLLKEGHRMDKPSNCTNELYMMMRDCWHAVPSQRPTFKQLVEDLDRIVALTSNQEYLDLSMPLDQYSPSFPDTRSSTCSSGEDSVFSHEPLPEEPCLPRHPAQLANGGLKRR

[4] = molecular target: MAP/microtubule affinity-regulating kinase 3 (Homo sapiens, UniProt P27448);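 note: MARK3 affinity measured as one member of a kinome panel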
[5] = molecular target: Protein kinase C delta type (Homo sapiens, UniProt Q05655)
[6] = molecular target: Protein kinase C zeta type (Homo sapiens, UniProt Q05513);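 note: measured as one member of a broad kinase profiling panel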
[7] = molecular target: Serine/threonine-protein kinase PAK 1 (Homo sapiens, UniProt Q13153)
Serine/threonine-protein kinase PAK 1, sequence (Q13153 whole entry): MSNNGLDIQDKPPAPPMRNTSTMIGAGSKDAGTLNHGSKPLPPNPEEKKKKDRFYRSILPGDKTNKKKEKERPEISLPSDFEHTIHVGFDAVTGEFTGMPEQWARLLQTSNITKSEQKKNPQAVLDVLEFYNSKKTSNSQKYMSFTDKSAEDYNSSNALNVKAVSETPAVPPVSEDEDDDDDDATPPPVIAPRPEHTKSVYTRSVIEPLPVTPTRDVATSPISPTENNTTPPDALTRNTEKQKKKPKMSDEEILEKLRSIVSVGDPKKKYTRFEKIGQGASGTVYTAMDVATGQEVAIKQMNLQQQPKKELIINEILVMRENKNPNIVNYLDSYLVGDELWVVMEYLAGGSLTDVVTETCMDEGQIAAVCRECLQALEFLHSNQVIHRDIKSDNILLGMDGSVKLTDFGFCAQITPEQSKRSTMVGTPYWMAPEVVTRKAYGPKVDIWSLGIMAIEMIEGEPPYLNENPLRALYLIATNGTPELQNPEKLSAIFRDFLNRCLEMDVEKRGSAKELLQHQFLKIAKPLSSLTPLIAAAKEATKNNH

[8] = molecular target: Serine/threonine-protein kinase MRCK alpha (Homo sapiens, UniProt Q5VT25)
[9] = molecular target: RAC-alpha serine/threonine-protein kinase (Homo sapiens, UniProt P31749);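 note: AKT1 affinity measured as one member of a kinome-wide kinase profiling panel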
[10] = molecular target: Dual specificity protein kinase CLK4 (Homo sapiens, UniProt Q9HAZ1)
Dual specificity protein kinase CLK4, sequence (Q9HAZ1 whole entry): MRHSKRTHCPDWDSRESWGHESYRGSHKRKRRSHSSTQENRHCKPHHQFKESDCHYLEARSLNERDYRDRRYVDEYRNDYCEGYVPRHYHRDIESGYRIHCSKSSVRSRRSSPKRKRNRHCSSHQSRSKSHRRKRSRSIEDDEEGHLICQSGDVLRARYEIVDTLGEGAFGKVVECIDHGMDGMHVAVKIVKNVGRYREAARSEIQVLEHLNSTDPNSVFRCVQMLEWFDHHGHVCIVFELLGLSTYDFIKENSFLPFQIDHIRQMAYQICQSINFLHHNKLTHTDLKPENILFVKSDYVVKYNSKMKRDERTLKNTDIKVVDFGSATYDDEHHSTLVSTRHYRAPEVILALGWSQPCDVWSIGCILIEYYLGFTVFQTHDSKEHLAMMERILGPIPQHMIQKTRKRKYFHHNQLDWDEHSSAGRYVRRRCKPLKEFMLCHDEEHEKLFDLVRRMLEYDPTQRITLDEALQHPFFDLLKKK

[11] = molecular target: Mitogen-activated protein kinase 1 (Homo sapiens, UniProt P28482)
Mitogen-activated protein kinase 1, sequence (P28482 whole entry): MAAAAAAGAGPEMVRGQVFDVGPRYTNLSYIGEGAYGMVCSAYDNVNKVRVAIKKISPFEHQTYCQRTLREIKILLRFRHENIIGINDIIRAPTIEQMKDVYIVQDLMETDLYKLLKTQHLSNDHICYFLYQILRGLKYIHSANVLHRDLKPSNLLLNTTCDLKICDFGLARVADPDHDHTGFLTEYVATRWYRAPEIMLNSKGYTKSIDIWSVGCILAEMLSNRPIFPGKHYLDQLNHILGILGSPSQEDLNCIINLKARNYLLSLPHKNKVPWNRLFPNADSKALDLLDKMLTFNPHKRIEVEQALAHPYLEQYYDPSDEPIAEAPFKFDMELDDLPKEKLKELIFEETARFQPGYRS

[12] = molecular target: Serine/threonine-protein kinase DCLK1 (Homo sapiens, UniProt O15075);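 note: affinity for DCLK1 (listed as DCAMKL1) measured as one member of a kinome-wide kinase profiling panel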
[13] = molecular target: Mitogen-activated protein kinase 9 (Homo sapiens, UniProt P45984);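 note: value from a kinome panel profiling assay, MAPK9 panel entry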
Mitogen-activated protein kinase 9, sequence (P45984 whole entry): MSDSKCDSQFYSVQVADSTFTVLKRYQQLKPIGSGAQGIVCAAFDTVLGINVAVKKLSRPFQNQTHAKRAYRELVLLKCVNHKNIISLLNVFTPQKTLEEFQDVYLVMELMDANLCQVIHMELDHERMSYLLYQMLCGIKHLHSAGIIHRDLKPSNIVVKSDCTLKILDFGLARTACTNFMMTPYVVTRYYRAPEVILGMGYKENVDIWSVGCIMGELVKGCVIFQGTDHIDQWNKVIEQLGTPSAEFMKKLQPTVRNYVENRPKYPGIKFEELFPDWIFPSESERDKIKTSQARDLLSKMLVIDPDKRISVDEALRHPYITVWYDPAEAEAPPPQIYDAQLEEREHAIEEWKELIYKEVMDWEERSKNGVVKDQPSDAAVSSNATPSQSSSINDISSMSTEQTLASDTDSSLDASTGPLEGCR

[14] = molecular target: Maternal embryonic leucine zipper kinase (Homo sapiens, UniProt Q14680)
[15] = molecular target: Vascular endothelial growth factor receptor 2 (Homo sapiens, UniProt P35968)
[16] = molecular target: Receptor-type tyrosine-protein kinase FLT3 (Homo sapiens, UniProt P36888);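 note: FLT3 was tested as one member of a kinome-wide kinase panel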
[17] = molecular target: Serine/threonine-protein kinase PLK1 (Homo sapiens, UniProt P53350);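 note: PLK1 measured as one member of a kinome-wide profiling panel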
[18] = molecular target: Serine/threonine-protein kinase N2 (Homo sapiens, UniProt Q16513)
[19] = molecular target: Rho-associated protein kinase 1 (Homo sapiens, UniProt Q13464);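 note: measured within a broad kinome-wide panel profiling many kinases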
[20] = molecular target: Mitogen-activated protein kinase 12 (Homo sapiens, UniProt P53778);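 note: measured as one member of a kinome-wide kinase profiling panel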
Mitogen-activated protein kinase 12, sequence (P53778 whole entry): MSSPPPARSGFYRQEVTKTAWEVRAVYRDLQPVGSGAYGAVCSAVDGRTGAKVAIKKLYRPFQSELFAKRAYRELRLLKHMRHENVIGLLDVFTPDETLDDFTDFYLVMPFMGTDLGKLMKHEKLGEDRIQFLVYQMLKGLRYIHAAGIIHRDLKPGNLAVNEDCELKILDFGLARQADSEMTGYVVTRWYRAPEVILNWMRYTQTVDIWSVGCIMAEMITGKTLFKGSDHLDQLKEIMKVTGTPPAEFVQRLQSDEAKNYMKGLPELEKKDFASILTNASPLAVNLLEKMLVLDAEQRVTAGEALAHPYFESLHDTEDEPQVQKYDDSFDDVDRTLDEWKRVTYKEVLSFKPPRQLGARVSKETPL

[21] = molecular target: Tyrosine-protein kinase receptor TYRO3 (Homo sapiens, UniProt Q06418);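 note: TYRO3 value obtained as one member of a kinome-wide profiling panel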
[22] = molecular target: Serine/threonine-protein kinase 17A (Homo sapiens, UniProt Q9UEE5)
[23] = molecular target: Dual specificity tyrosine-phosphorylation-regulated kinase 3 (Homo sapiens, UniProt O43781);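 note: measured as one member of a broad kinase panel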
Dual specificity tyrosine-phosphorylation-regulated kinase 3, sequence (O43781 whole entry): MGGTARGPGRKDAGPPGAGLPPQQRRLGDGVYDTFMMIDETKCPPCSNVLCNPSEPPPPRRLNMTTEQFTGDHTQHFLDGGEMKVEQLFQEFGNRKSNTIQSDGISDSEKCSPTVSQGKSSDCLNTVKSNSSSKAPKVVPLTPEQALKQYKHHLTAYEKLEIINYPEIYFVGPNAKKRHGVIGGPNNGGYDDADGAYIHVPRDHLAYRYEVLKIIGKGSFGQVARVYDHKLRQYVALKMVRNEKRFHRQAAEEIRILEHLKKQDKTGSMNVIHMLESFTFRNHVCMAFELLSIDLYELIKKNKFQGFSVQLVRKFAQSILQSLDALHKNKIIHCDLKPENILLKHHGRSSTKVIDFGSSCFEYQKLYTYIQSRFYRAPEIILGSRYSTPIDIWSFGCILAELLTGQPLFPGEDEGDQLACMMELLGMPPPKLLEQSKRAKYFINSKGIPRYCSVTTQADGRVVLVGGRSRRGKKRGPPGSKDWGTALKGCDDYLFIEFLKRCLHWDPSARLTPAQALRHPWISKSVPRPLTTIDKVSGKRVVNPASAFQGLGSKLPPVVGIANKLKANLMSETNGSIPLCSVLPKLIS

[24] = molecular target: Calcium/calmodulin-dependent protein kinase type II subunit gamma (Homo sapiens, UniProt Q13555)
[25] = molecular target: cAMP-dependent protein kinase catalytic subunit alpha (Homo sapiens, UniProt P17612)
[26] = molecular target: Casein kinase I isoform alpha (Homo sapiens, UniProt P48729)
[27] = molecular target: Phosphorylase b kinase gamma catalytic chain, liver/testis isoform (Homo sapiens, UniProt P15735);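 note: PHKG2 measured as one member of a kinome-wide kinase panel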
[28] = molecular target: Dual specificity tyrosine-phosphorylation-regulated kinase 1A (Homo sapiens, UniProt Q13627);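 note: measured against DYRK1A as one member of a broad kinome profiling panel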
[29] = molecular target: SRSF protein kinase 1 (Homo sapiens, UniProt Q96SB4);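 note: measured as one member of a kinome-wide kinase profiling panel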
SRSF protein kinase 1, sequence (Q96SB4 whole entry): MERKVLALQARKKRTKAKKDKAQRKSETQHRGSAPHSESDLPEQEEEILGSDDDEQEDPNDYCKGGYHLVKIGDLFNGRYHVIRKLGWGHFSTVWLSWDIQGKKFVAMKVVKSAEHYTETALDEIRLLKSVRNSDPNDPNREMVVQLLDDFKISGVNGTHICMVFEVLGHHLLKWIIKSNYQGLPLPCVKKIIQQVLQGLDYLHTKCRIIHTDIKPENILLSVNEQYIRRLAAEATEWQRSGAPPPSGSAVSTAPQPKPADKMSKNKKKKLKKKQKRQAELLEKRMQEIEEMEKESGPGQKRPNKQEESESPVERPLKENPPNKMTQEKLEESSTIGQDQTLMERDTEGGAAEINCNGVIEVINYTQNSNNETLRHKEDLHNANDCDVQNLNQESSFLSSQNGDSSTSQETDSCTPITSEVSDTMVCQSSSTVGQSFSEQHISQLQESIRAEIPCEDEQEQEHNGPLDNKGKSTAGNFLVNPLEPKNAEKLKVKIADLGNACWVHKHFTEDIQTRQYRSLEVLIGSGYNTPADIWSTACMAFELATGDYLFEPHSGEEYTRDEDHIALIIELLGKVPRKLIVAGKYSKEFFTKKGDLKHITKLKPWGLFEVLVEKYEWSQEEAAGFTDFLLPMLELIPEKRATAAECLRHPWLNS

[30] = molecular target: Lymphokine-activated killer T-cell-originated protein kinase (Homo sapiens, UniProt Q96KB5);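 note: value comes from a kinase panel screen in which TOPK was one of the panel members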
[31] = molecular target: 5'-AMP-activated protein kinase catalytic subunit alpha-1 (Homo sapiens, UniProt Q13131)
5'-AMP-activated protein kinase catalytic subunit alpha-1, sequence (Q13131 whole entry): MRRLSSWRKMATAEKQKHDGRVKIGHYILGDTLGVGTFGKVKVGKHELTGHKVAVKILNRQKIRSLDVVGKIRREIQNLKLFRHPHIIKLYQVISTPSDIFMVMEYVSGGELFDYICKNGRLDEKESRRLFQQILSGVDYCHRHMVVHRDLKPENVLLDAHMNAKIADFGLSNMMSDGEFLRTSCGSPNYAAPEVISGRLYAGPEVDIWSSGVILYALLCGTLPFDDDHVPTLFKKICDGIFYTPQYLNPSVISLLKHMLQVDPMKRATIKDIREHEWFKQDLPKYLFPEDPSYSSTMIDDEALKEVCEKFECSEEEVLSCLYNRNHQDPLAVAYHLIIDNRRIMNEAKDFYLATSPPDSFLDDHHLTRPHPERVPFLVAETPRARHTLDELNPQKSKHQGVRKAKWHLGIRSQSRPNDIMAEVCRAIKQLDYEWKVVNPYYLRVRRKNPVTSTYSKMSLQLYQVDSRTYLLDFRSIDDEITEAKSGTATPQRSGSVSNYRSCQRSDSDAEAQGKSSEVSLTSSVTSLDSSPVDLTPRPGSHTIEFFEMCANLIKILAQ

[32] = molecular target: Tyrosine-protein kinase Srms (Homo sapiens, UniProt Q9H3Y6);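 note: SRMS measured as one member of a kinome-wide kinase profiling panel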
[33] = tested on: Vero; experiment: viability of Vero cells under compound – cytotoxicity control for flavivirus capping enzyme inhibitors (AID 588742); details: Chlorocebus sabaeus
[34] = molecular target: Genome polyprotein (dengue virus type 2, UniProt P29990); experiment: flavivirus cap methylation enzyme inhibition – biochemical, confirmation dose response, primary screen (AID 588689)
[35] = molecular target: T1, Protein RecA (Mycobacterium tuberculosis, UniProt P9WHJ3); experiment: Fluorescence Cell-Free Homogeneous Dose Retest to Identify Inhibitors of RecA-Intein Splicing Activity. [Related pubchem assays (depositor defined):AID2097, AID2223, AID489010, AID492950]
T1 sequence (P9WHJ3 whole entry): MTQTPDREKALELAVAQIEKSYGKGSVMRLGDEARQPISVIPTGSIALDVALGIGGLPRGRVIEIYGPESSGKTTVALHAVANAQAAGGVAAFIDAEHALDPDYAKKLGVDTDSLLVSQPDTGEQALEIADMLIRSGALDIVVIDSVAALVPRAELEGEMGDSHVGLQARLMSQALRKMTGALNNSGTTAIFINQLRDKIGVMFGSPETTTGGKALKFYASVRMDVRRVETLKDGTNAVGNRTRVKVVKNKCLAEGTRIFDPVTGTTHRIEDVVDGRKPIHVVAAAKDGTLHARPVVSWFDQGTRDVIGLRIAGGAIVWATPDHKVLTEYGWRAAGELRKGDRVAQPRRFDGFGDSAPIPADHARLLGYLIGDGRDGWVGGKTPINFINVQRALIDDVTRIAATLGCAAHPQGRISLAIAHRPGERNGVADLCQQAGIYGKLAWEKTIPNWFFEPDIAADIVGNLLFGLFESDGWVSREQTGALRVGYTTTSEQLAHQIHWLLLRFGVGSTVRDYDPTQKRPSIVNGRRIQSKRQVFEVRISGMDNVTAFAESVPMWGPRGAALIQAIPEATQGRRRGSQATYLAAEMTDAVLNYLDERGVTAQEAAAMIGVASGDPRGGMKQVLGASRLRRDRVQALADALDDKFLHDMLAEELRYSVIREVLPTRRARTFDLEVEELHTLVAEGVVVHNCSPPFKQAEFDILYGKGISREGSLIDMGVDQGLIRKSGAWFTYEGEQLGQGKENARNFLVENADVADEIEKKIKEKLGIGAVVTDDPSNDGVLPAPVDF

Cn1cncc1C(OCc1c(-c2ccc(OC(F)(F)F)cc2)cc(C#N)c(=O)n1C)c1ccc(C#N)cc1 (stereo not given)
active: Ki [1] 0.316 µM | Ki [4] 0.794 µM | Ki [16] 0.631 µM | Ki [28] 0.316 µM
inactive: Ki [2] > 5.01 µM | Ki [3] > 5.01 µM | Ki [5] > 7.94 µM | Ki [6] > 7.94 µM | Ki [7] > 10 µM | Ki [8] > 10 µM | Ki [9] > 7.94 µM | Ki [10] > 10 µM | Ki [11] > 7.94 µM | Ki [12] > 10 µM | Ki [13] > 3.98 µM | Ki [14] > 1.58 µM | Ki [15] > 7.94 µM | Ki [17] > 7.94 µM | Ki [18] > 7.94 µM | Ki [19] > 10 µM | Ki [20] > 6.31 µM | Ki [21] > 2 µM | Ki [22] > 3.98 µM | Ki [23] > 6.31 µM | Ki [24] > 6.31 µM | Ki [25] > 7.94 µM | Ki [26] > 6.31 µM | Ki [27] > 5.01 µM | Ki [29] > 7.94 µM | Ki [30] > 10 µM | Ki [31] > 1.58 µM | Ki [32] > 1.58 µM

CCc1ccc(S(=O)(=O)/N=C2\C=C(NS(=O)(=O)c3ccccc3)C(=O)c3ccccc32)cc1
active: CC50 [33] > 40 µM | IC50 [34] 22.9 µM | EC50 [35] 3.08 µM
